Test results as given in article PMC12475274, “Harnessing indole scaffolds to identify small-molecule IRE1α inhibitors modulating XBP1 mRNA splicing” (Nature Communications, 2025).
“And” between values parts separate entries of the source, which are not always exact repeats. Equal values may be shown once. Read-outs that look alike come from different tables or passages of the source.

Key:
[1] = biological target: T1, dephosphorylated IRE1α (547–977) (Homo sapiens, UniProt O75460); assay: FRET-based IRE1α RNase activity assay, dephosphorylated IRE1α; assay type: biochemical
T1 construct: Human IRE1α kinase and RNase domain (residues 547–977) was subcloned into pLIB plasmid; His tag (with TEV cleavage site) (N, cleaved yes); made in house; host or cells: Sf9 insect cells, baculovirus (Bac-to-Bac)
T1 sequence (O75460 547-977): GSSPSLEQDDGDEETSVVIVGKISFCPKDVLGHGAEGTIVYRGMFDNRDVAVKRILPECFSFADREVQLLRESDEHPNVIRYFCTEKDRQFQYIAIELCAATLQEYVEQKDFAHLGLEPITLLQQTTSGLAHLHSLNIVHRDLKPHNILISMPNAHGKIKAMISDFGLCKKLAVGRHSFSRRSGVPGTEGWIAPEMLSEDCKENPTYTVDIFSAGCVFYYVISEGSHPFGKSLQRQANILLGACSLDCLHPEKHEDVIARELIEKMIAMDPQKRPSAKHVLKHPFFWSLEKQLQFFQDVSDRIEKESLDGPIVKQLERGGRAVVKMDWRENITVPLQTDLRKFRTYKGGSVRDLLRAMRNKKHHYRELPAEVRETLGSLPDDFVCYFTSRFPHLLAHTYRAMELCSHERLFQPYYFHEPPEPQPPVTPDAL
Summary of the method: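 Dephosphorylated human IRE1α (residues 547–977, Sf9-expressed, λ-phosphatase treated), 40 nM, preincubated 30 min with compound at room temperature, then 100 nM FAM/BHQ1 XBP1 RNA added in HEPES pH 7.5 buffer. Fluorescence (485/535 nm) read kinetically for 1 h; inhibition from linear-phase slopes versus DMSO, fitted to IC50.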

[2] = biological target: IRE1α (ERN1) (Homo sapiens, UniProt O75460); assay: LanthaScreen Eu kinase binding assay, IRE1α; settings: for inhibition at 5.56 µM: Conc. 5560 nM; for inhibition at 5.56 µM / inhibition at 16.7 µM / inhibition at 50 µM: duplicates; for inhibition at 16.7 µM: Conc. 16700 nM; for inhibition at 50 µM: Conc. 50000 nM
Sequence of IRE1α (ERN1) (O75460 19-977): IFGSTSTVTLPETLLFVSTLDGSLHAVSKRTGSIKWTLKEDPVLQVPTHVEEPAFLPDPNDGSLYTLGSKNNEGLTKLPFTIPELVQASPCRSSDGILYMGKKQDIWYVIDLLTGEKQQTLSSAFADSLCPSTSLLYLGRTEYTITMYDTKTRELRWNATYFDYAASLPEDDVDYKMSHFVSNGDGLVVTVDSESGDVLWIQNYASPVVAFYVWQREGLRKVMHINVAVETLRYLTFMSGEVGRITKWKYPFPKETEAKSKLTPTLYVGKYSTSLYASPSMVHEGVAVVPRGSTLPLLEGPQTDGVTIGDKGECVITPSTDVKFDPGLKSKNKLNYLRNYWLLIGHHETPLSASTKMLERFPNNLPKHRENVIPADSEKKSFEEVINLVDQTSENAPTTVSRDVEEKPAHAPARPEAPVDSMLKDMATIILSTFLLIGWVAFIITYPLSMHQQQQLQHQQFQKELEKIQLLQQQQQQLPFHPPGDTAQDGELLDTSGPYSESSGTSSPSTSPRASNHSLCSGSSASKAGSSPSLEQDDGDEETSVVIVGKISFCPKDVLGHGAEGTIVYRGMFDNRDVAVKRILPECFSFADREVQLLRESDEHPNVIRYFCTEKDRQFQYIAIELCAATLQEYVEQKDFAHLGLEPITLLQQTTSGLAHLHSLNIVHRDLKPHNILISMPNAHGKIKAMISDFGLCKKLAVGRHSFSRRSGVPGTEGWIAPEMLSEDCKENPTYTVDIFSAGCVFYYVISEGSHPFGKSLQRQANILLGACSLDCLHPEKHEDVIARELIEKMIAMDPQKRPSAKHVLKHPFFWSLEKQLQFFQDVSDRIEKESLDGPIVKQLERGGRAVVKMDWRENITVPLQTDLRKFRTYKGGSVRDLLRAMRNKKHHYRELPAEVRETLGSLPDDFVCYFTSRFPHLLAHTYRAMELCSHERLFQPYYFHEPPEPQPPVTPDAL
Procedure: LanthaScreen^TM Eu kinase binding assays were conducted by SelectScreen Kinase Profiling Services (Thermo Fisher) using Alexa Fluor conjugated kinase tracer, tagged kinase protein, and Eu-labeled anti-tag antibody. The binding of the tracer to the kinase will form the tracer-kinase complex, resulting in a high FRET signal with the Eu-labeled anti-tag antibody. Displacement of the tracer by a kinase inhibitor led to a decreased FRET signal. […] Buffer A containing 50 mM HEPES pH 7.5, 0.01% BRIJ-35, 10 mM MgCl2, and 1 mM EGTA was used.
Kinase profiling was conducted by the SelectScreen Kinase Profiling Services (Thermo Fisher), using Z′-LYTE, Adapta, or LanthaScreen Eu Kinase Binding Assay for different kinases. The kinome phylogenetic tree was generated using the KinMap web portal.

[3] = biological target: T2, p-IRE1α (Homo sapiens, UniProt O75460); assay: Differential scanning fluorimetry (DSF), p-IRE1α; assay type: binding; settings: for p-IRE1a ∆Tm: DSF, individual measurements; for p-IRE1a ∆Tm(°C): individual replicate values
T2 construct: Human IRE1α kinase and RNase domain (residues 547–977) was subcloned into pLIB plasmid; His tag (with TEV cleavage site) (N, cleaved yes); made in house; host or cells: Sf9 insect cells, baculovirus (Bac-to-Bac)
T2 sequence (O75460 547-977): as the sequence (O75460 547-977) above
Procedure: The DSF assay was performed in PBS buffer containing 2 mM DTT, in a total reaction volume of 20 µl with indicated compounds (final 1% DMSO) and the final concentration of 1 µM IRE1α protein and 5× SYPRO Orange fluorescent dye (5000× in DMSO, Sigma S5692). The melting curve was measured at a temperature range from 25 °C to 95 °C and in increments of 1 °C for 30 s using a Bio-Rad CFX96 Real-Time PCR detection system with the FRET scan mode. The melting temperature (Tm) was obtained by fitting the melting curve to Boltzmann sigmoidal in GraphPad Prism and the thermal shift (∆Tm) was calculated by using the equation: ∆Tm = Tm(compound) -Tm(DMSO).

[4] = read-out: IRE1a Kinase Displacement(%)
[5] = IRE1α kinase domain, read-out: IC50 (kinase binding), LanthaScreen Eu kinase binding
[6] = FRET assay at 50 μM, source data, 50 µM
[7] = FRET assay, RNase activity, mean (± SEM), read-out: IRE1α IC50
[8] = FRET assay, source data, unit from Fig. 3 / sheet Fig. 2b, read-out: IRE1a IC50, individual replicates (n1-n4)
[9] = IRE1a, IA34 0.000282 μM, Supplementary Fig. 3b, replicate values
[10] = IRE1a, IA34 1.85185 μM, Supplementary Fig. 3b, replicate values

## CCOC(=O)Nc1cccc2c(Oc3ncccc3-c3ccnc(N[C@H]4CCCNC4)n3)c(C)ccc12 [Compound G1749, reference compound]
[1]
  effect on IRE1α RNase activity in the FRET assay: activating IRE1α activity
[1]; IRE1a, 5.55556 μM
  activity (fold change): 6.184 fold change and 6.333 fold change and 5.999 fold change and 6.267 fold change
[1]; IRE1a, 16.6667 μM
  activity (fold change): 6.104 fold change and 5.222 fold change and 7.238 fold change and 6.279 fold change
[1]; IRE1a, 50 μM
  activity (fold change): 5.173 fold change and 5.3757 fold change and 6.203 fold change and 5.356 fold change

## COc1ccc2c(c1)c(CCC(=O)O)c(C)n2C(=O)c1ccc(Cl)cc1 [IA01]
[2]; [4]
  inhibition at 5.56 µM: 50%
  inhibition at 16.7 µM: 63%
  inhibition at 50 µM: 70%
[2]; [5]
  IC50: 2.47 µM
[1]; FRET assay at 10 μM, source data, 10 µM
  IRE1a inhibition(%), individual measurements: 86.3319%
[1]; FRET assay at 10 μM, source data, read-out: IRE1a inhibition(%), individual measurements
  inhibition at 10 µM: 85.9%
[1]; FRET assay at 50 μM, mean (± SEM), read-out: IRE1α inhibition%
  inhibition at 50 µM: 97.1%
[1]; [6]
  IRE1a inhibition(%), individual measurements: 92.8762% and 91.6346% and 94.1417% and 92.7378% and 93.1088% and 89.7986% and 113.165% and 103.517% and 100.196% and 112.293% and 71.6431% and 81.6993%
[1]; [7]
  IC50: 0.3 µM
[1]; [8]
  IC50: 0.286 µM and 0.204 µM and 0.4 µM
[3]
  stabilization of p-IRE1α in DSF: concentration-dependently stabilized
[3]; compound 25 μM
  p-IRE1a ∆Tm: 0.52 °C and 0.47 °C
[3]; compound 50 μM
  p-IRE1a ∆Tm: 0.91 °C and 1.02 °C

## COc1ccc2c(c1)c(CCC(=O)O)c(C)n2C(=O)c1ccc2ccccc2c1 [IA34]
[1]; FRET assay, RNase activity, mean (± SEM)
  IRE1α IC50: IC₅₀ not reached
[1]; [7]
  IC50: > 20 µM
[1]; [9]
  inhibition at 0.000282 µM: 11%
  inhibition(%): 17.14% and 20.16% and 15.89%
[1]; IRE1a, IA34 0.000847 μM, Supplementary Fig. 3b, replicate values
  inhibition(%): 11.75% and 10.72% and 4.25% and 16.96%
[1]; IRE1a, IA34 0.00254 μM, Supplementary Fig. 3b, replicate values
  inhibition(%): 11.91% and 15.33% and 6.07% and 5.16%
[1]; IRE1a, IA34 0.007621 μM, Supplementary Fig. 3b, replicate values
  inhibition(%): 4.65% and -4.78% and -13.00% and -9.42%
[1]; IRE1a, IA34 0.022862 μM, Supplementary Fig. 3b, replicate values
  inhibition(%): -15.56% and -32.65% and -11.50% and -23.95%
[1]; IRE1a, IA34 0.068587 μM, Supplementary Fig. 3b, replicate values
  inhibition(%): 0.30% and -2.50% and 3.18% and 1.26%
[1]; IRE1a, IA34 0.205761 μM, Supplementary Fig. 3b, replicate values
  inhibition(%): 4.13% and 5.59% and 2.33% and -2.10%
[1]; IRE1a, IA34 0.617284 μM, Supplementary Fig. 3b, replicate values
  inhibition(%): 17.19% and 19.37% and 7.03% and 9.32%
[1]; [10]
  inhibition at 1.85185 µM: 10.8%
  inhibition(%): 18.23% and 17.28% and 17.87%
[1]; IRE1a, IA34 5.55556 μM, Supplementary Fig. 3b, replicate values
  inhibition(%): 27.30% and 30.30% and 1.63% and 11.62%
[1]; IRE1a, IA34 16.6667 μM, Supplementary Fig. 3b, replicate values
  inhibition(%): 11.08% and 14.65% and 30.15% and 29.94%
[1]; IRE1a, IA34 50 μM, Supplementary Fig. 3b, replicate values
  inhibition(%): -1.98% and 7.19% and 5.53% and 17.33%
[3]; compound 6.25 μM
  p-IRE1a ∆Tm(°C): 0.04 °C and -0.01 °C
[3]; compound 12.5 μM
  p-IRE1a ∆Tm(°C): 0 °C and -0.08 °C
[3]; compound 25 μM
  p-IRE1a ∆Tm(°C): 0.02 °C and 0.03 °C
[3]; compound 50 μM
  p-IRE1a ∆Tm(°C): 0.03 °C and 0.12 °C

## COc1ccc2c(c1)c(CCC(=O)O)c(C)n2C(=O)c1ccccc1 [IA64]
[2]; [4]
  inhibition at 5.56 µM: 104%
  inhibition at 16.7 µM: 98%
  inhibition at 50 µM: 109%
[2]; [5]
  IC50: 1.1 µM
[1]; [7]
  IC50: 0.03 µM and 0.0349 µM
[1]; [8]
  IC50: 0.0441 µM and 0.0367 µM and 0.0384 µM and 0.0204 µM
[3]; compound 6.25 μM
  p-IRE1a ∆Tm(°C): 0.67 °C and 0.63 °C
[3]; compound 12.5 μM
  p-IRE1a ∆Tm(°C): 1.12 °C and 1.05 °C
[3]; compound 25 μM
  p-IRE1a ∆Tm(°C): 1.46 °C and 1.49 °C
[3]; compound 50 μM
  p-IRE1a ∆Tm(°C): 2.16 °C and 2.21 °C

## Cc1c(CCC(=O)O)c2cc(Br)ccc2n1C(=O)c1ccccc1 [IA107]
[2]; [4]
  inhibition at 5.56 µM: 88%
  inhibition at 16.7 µM: 94%
  inhibition at 50 µM: 96%
[2]; [5]
  IC50: 0.768 µM
[2]; kinase profiling, ERN1, LanthaScreen Binding, IA107 at 5 μM
  inhibition at 5 µM: 91%
[1]; FRET IC50, reference compound not named
  increase in potency (IRE1α): 20 fold
[1]; FRET assay at 16.6667 μM, source data, 16.6667 µM
  IRE1a inhibition(%), individual measurements: 96.2448% and 97.4358% and 96.6561% and 93.7071% and 93.3922% and 93.79% and 97.6814%
[1]; FRET assay at 16.6667 μM, source data, read-out: IRE1a inhibition(%), individual measurements
  inhibition at 16.6667 µM: 92.4%
[1]; [6]
  IRE1a inhibition(%), individual measurements: 89.203% and 96.8587% and 95.5081% and 91.4695% and 84.6077% and 86.1159% and 92.8068%
[1]; FRET assay at 50 μM, source data, read-out: IRE1a inhibition(%), individual measurements
  inhibition at 50 µM: 91.3%
[1]; [7]
  IC50: 0.016 µM and 0.0156 µM
[1]; [8]
  IC50: 0.0155 µM and 0.017 µM and 0.0142 µM
[3]
  stabilization of p-IRE1α in DSF: stabilized phosphorylated IREα concentration-dependently
[3]; compound 25 μM
  p-IRE1a ∆Tm: 1.94 °C and 2.53 °C and 2.1 °C and 2.61 °C
[3]; compound 50 μM
  p-IRE1a ∆Tm: 3.27 °C and 3.18 °C and 2.63 °C and 3 °C
[3]; compound 100 μM
  p-IRE1a ∆Tm: 3.1 °C and 3.74 °C and 2.72 °C and 2.61 °C

## Cc1c(CCC(=O)O)c2cc(Cl)ccc2n1C(=O)c1ccccc1 [IA141]
[1]; [7]
  IC50: 0.052 µM and 0.05 µM
[1]; [8]
  IC50: 0.0617 µM and 0.0346 µM and 0.0582 µM
[3]; compound 1.563 μM
  p-IRE1a ∆Tm(°C): 0.12 °C and -0.00583 °C and 0.32 °C and -0.0158 °C
[3]; compound 3.125 μM
  p-IRE1a ∆Tm(°C): 0.72 °C and 0.27 °C (2×) and 0.32 °C
[3]; compound 6.25 μM
  p-IRE1a ∆Tm(°C): 0.99 °C and 0.72 °C and 0.76 °C and 0.85 °C
[3]; compound 12.5 μM
  p-IRE1a ∆Tm(°C): 1.57 °C and 1.31 °C and 1.36 °C and 1.19 °C
[3]; compound 25 μM
  p-IRE1a ∆Tm(°C): 2.22 °C and 2.10 °C and 1.74 °C and 2.25 °C
[3]; compound 50 μM
  p-IRE1a ∆Tm(°C): 2.87 °C and 2.43 °C and 2.53 °C and 2.76 °C
[3]; compound 100 μM
  p-IRE1a ∆Tm(°C): 3.32 °C and 3.36 °C and 3.61 °C and 3.33 °C

## Cc1ccc2c(c1)c(CCC(=O)O)c(C)n2C(=O)c1ccccc1 [IA147]
[1]; [7]
  IC50: 0.066 µM and 0.0664 µM
[1]; [8]
  IC50: 0.0906 µM and 0.0455 µM and 0.0632 µM
[3]; compound 1.563 μM
  p-IRE1a ∆Tm(°C): 0.22 °C and 0.13 °C and 0.08 °C and 0.11 °C
[3]; compound 3.125 μM
  p-IRE1a ∆Tm(°C): 0.29 °C (2×) and 0.42 °C and 0.19 °C
[3]; compound 6.25 μM
  p-IRE1a ∆Tm(°C): 0.58 °C and 0.78 °C and 0.38 °C and 0.50 °C
[3]; compound 12.5 μM
  p-IRE1a ∆Tm(°C): 0.95 °C and 0.90 °C and 0.84 °C and 1.22 °C
[3]; compound 25 μM
  p-IRE1a ∆Tm(°C): 1.52 °C and 1.79 °C and 1.41 °C and 1.95 °C
[3]; compound 50 μM
  p-IRE1a ∆Tm(°C): 2.33 °C and 2.18 °C and 1.98 °C and 2.60 °C
[3]; compound 100 μM
  p-IRE1a ∆Tm(°C): 3.18 °C and 2.83 °C and 2.92 °C and 3.09 °C

## CCOC(=O)CCc1c(C)n(C(=O)c2ccccc2)c2ccc(Br)cc12 [IAPD1]
[2]
  binding to IRE1α kinase domain in LanthaScreen assay: did not show any detectable activity
[2]; 0.0686 μM, read-out: IRE1a Kinase Displacement(%)
  inhibition at 0.0686 µM: 11.5%
[2]; listed as IADP1
  binding to IRE1α kinase domain in LanthaScreen assay: did not show any detectable
[2]; read-out: IC50 (Kinase), LanthaScreen kinase binding/displacement
  IC50: > 50 µM
[1]
  effect on IRE1α RNase activity in the FRET assay: did not show any detectable activity
[1]; [7]
  IC50: > 50 µM
[1]; listed as IADP1
  effect on IRE1α RNase activity in the FRET assay: did not inhibit the RNase activity

## Cc1ccc2c(NS(=O)(=O)c3ccccc3Cl)cccc2c1Oc1ncccc1-c1ccnc(N[C@H]2CCCNC2)n1 [KIRA8]
[1]; [7]
  IC50: 0.021 µM
